pIC50: −log10 of the molar value.

Broadly, the pIC50 is the IC50 on a negative log10 scale, so that one unit is a factor of ten.

T1 sequence (O14744 with tags, fused parts or gaps): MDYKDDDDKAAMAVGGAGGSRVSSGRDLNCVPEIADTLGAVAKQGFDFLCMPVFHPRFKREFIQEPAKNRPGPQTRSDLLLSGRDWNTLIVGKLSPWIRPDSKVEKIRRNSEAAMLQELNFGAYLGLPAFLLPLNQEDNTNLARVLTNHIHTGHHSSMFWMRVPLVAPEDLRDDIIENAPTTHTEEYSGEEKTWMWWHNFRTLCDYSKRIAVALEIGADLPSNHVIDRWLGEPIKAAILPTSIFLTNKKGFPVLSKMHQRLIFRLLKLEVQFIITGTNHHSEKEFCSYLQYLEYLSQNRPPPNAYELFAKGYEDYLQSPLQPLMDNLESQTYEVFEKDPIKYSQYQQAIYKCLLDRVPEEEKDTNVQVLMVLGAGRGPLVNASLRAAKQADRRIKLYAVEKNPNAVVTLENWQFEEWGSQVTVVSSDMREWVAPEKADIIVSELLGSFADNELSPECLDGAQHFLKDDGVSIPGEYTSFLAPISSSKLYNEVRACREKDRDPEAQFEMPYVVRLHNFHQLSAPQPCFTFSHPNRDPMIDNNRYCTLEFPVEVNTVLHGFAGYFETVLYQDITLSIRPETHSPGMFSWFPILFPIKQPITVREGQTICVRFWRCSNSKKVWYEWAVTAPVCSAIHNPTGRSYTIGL
T1 sequence (Q9BQA1 with tags, fused parts or gaps partner limits assumed): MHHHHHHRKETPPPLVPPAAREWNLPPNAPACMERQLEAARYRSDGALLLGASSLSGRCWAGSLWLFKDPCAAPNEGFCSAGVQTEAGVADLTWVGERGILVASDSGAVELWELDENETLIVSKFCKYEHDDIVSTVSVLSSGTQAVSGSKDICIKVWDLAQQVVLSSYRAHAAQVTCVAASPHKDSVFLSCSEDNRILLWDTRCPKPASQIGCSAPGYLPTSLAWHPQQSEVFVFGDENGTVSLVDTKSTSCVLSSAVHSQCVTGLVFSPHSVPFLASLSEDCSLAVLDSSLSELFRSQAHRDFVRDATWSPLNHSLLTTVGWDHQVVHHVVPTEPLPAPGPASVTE

One assay addresses T1, PRMT5/MEP50 (Homo sapiens, UniProt O14744).
T1 construct: Expressed full-length human Flag-PRMT5/6His-MeP50 protein complex was purified; made in house; host or cells: Spodoptera frugiperda (SF9) insect cells, baculovirus (pDEST8)
Kind of assay: PRMT5 Biochemical Assay (PRMT5/MEP50 enzyme assay on peptide substrate, 3H-SAM Flashplate). Conditions: Table A-2; PRMT5/MEP50 4 nM, 3H-SAM 75 nM, peptide 40 nM; read-out: Biochemical IC50. An excerpt: S-adenosylmethionine (SAM), S-adenosylhomocysteine (SAH), bicine, KCl, Tween20, dimethylsulfoxide (DMSO), bovine skin gelatin (BSG), and Tris(2-carboxyethyl)phosphine hydrochloride solution (TCEP) were purchased from Sigma-Aldrich at the highest level of purity possible. ^3H-SAM was purchase from American Radiolabeled Chemicals with a specific activity of 80 Ci/mmol 384-well streptavidin Flashplates were purchased from PerkinElmer.
Peptide representative of human histone H4 residues 1-15 was synthesized with a C-terminal linker-affinity tag motif and a C-terminal amide cap by 21st Century Biochemicals. […] The sequence was Ac-[…][K-Biot]-amide (SEQ ID NO.:3).
Full-length human MEP50 (NM_024102) clone was amplified from a human testis cDNA library incorporating a 5′ sequence encoding a 6-histidine tag (MHHHHHH) (SEQ ID NO.:5) fused directly to Arg 2 of MEP50. The amplified genes were sublconed into pENTR/D/TEV (Life Technologies) and subsequently transferred by Gateway™ attL×attR recombination to pDEST8 baculvirus expression vector (Life Technologies).
Recombinant baculovirus and Baculovirus-Infected Insect Cells (BIIC) were generated according to Bac-to-Bac kit instructions (Life Technologies) and Wasilko, 2006, respectively. Protein over-expression was accomplished by infecting exponentially growing Spodoptera frugiperda (SF9) cell culture at 1.2×10^6 cell/ml with a 5000 fold dilution of BIIC stock. Infections were carried out at 27° C. for 72 hours, harvested by centrifugation, and stored at −80° C. for purification.
Flag-PRMT5/6His-MeP50 was eluted with 300 mM Imidazole in the same buffer. […] Reference: Wasilko, D. J. and S. E. Lee: “TIPS: titerless infected-cells preservation and scale-up” Bioprocess J., 5 (2006), pp. 29-32.
General Procedure for PRMT5/MEP50 Enzyme Assays on Peptide Substrates.
The assays were all performed in a buffer consisting of 20 mM Bicine (pH=7.6), 1 mM TCEP, 0.005% BSG, and 0.002% Tween20, prepared on the day of use. Compounds in 100% DMSO (1 ul) were spotted into a polypropylene 384-well V-bottom plates (Greiner) using a Platemate Plus outfitted with a 384-channel head (Thermo Scientific). DMSO (1 ul) was added to Columns 11, 12, 23, 24, rows A-H for the maximum signal control and 1 ul of SAH, a known product and inhibitor of PRMT5/MEP50, was added to columns 11, 12, 23, 24, rows I-P for the minimum signal control. A cocktail (40 ul) containing the PRMT5/MEP50 enzyme and the peptide was added by Multidrop Combi (Thermo-Fisher). The compounds were allowed to incubate with PRMT5/MEP50 for 30 min at 25 degrees Celsius, then a cocktail (10 ul) containing ^3H-SAM was added to initiate the reaction (final volume=51 ul). The final concentrations of the components were as follows: PRMT5/MEP50 was 4 nM, ^3H-SAM was 75 nM, peptide was 40 nM, SAH in the minimum signal control wells was 100 uM, and the DMSO concentration was 1%. The assays were stopped by the addition of non-radioactive SAM (10 ul) to a final concentration of 600 uM, which dilutes the ^3H-SAM to a level where its incorporation into the peptide substrate is no longer detectable. 50 ul of the reaction in the 384-well polypropylene plate was then transferred to a 384-well Flashplate and the biotinylated peptides were allowed to bind to the streptavidin surface for at least 1 hour before being washed three times with 0.1% Tween20 in a Biotek ELx405 plate washer. The plates were then read in a PerkinElmer TopCount plate reader to measure the quantity of ^3H-labeled peptide bound to the Flashplate surface, measured as disintegrations per minute (dpm) or alternatively, referred to as counts per minute (cpm).
where dpm=disintegrations per minute, cmpd=signal in assay well, and min and max are the respective minimum and maximum signal controls.
where top and bottom are the normally allowed to float, but may be fixed at 100 or 0 respectively in a 3-parameter fit.
In the case of `CN(C)c1cncc(OCC(=O)NCC(O)CN2CCc3ccccc3C2)c1` (centres unmarked) [Compound A143], the pIC50 is 5.00 to 6.00.
For the compound `O=C(COc1cccc2cccnc12)NCC(O)CN1Cc2ccccc2C(F)(F)C1` (centres unmarked) [Compound A144], the pIC50 was below 5.00.
As to `Nc1ncccc1OCC(=O)NCC(O)CN1CCc2ccccc2C1` (centres unmarked) [Compound A145], the negative-log IC50 (pIC50) was 5.00 to 6.00.
On the same count and under the same terms, the result for `CC(=O)Nc1ncccc1OCC(=O)NCC(O)CN1CCc2ccccc2C1` (centres unmarked) [Compound A147] reads below 5.00; that for `CC(=O)Nc1cncc(OCC(=O)NCC(O)CN2CCc3ccccc3C2)c1` (centres unmarked) [Compound A148], below 5.00; that for `O=C(COc1cccc2c1CCCN2)NCC(O)CN1CCc2ccccc2C1` (centres unmarked) [Compound A150], 6.00 to 7.00.
Turning to `CN1CCCc2c(OCC(=O)NCC(O)CN3CCc4ccccc4C3)cccc21` (centres unmarked) [Compound A151], the pIC50 is 6.00 to 7.00.
As to `O=C(COCc1cccnc1)NCC(O)CN1CCc2ccccc2C1` (centres unmarked) [Compound A152], the pIC50 is 5.00 to 6.00.

The assay is the same for the next values; noted with them: Table B-2; PRMT5/MEP50 4 nM, 3H-SAM 75 nM, peptide 40 nM; read-out: Biochemical IC50.
Turning to `O=C(NCC(O)CN1CCc2ccccc2C1)c1cccc(-c2ccccn2)c1` (centres unmarked) [Compound B1.], the pIC50 was above 7.00.
The same measure, in the same setting: as for `Cn1nccc1-c1cccc(C(=O)NCC(O)CN2CCc3ccccc3C2)c1` (centres unmarked) [Compound B2.], the figure is above 7.00; as for `O=C(NC[C@H](O)CN1CCc2ccccc2C1)c1ccccc1` [Compound B3.], above 7.00.
Same read-out and setting: the result for `O=C(NCC(O)CN1CCc2ccccc2C1)c1cccc(-c2cccnc2)c1` (centres unmarked) [Compound B8.] reads above 7.00.
Still for that read-out and setting: as for `O=C(NCC(O)CN1CCc2ccccc2C1)c1cccc(-c2ccncc2)c1` (centres unmarked) [Compound B9.], the figure is above 7.00; as for `O=C(NCC(O)CN1CCc2ccccc2C1)c1cccc(-c2cc[nH]n2)c1` (centres unmarked) [Compound B10.], above 7.00.
Regarding `O=C(NC[C@@H](O)CN1CCc2ccccc2C1)Oc1ccccc1` [Compound B11.], the pIC50 was above 7.00.
Still for that read-out and setting: the result for `O=C(NCC(O)CN1CCc2ccccc2C1)c1ccccc1-c1ccccn1` (centres unmarked) [Compound B12.] reads 6.00 to 7.00; that for `O=C(NCC(O)CN1CCc2ccccc2C1)c1ccc(-c2ccccn2)cc1` (centres unmarked) [Compound B13.], above 7.00; that for `O=C(NCC(O)CN1CCc2ccccc2C1)c1cccc(N2CCOCC2)c1` (centres unmarked) [Compound B14.], above 7.00.
For the compound `O=C(NCC(O)CN1CCc2ccccc2C1)c1cccc(CNC2CCOCC2)c1` (centres unmarked) [Compound B15.], the pIC50 is above 7.00.
As for `O=C(NCC(O)CN1CCc2ccccc2C1)c1cccc(NC2CCOCC2)c1` (centres unmarked) [Compound B16.], the pIC50 was above 7.00.
With `O=C(NCC(O)CN1CCc2ccccc2C1)c1ccccn1` (centres unmarked) [Compound B17.], the pIC50 was 6.00 to 7.00.
Same read-out and setting: as for `O=C(NCC(O)CN1CCc2ccccc2C1)c1cccnc1` (centres unmarked) [Compound B18.], the figure is 6.00 to 7.00; as for `O=C(NC[C@@H](O)CN1CCc2ccccc2C1)c1cccc(-c2ccccn2)c1` [Compound B19.], above 7.00; as for `O=C(NC[C@H](O)CN1CCc2ccccc2C1)c1cccc(-c2ccccn2)c1` [Compound B20.], above 7.00.
On to `NS(=O)(=O)c1ccc(C(=O)NCC(O)CN2CCc3ccccc3C2)cc1` (centres unmarked) [Compound B21.], for which the pIC50 is 6.00 to 7.00.
Still for that read-out and setting: the result for `NC(=O)c1ccc(C(=O)NCC(O)CN2CCc3ccccc3C2)cc1` (centres unmarked) [Compound B22.] reads 6.00 to 7.00.
With `CC(=O)Nc1ccc(C(=O)NCC(O)CN2CCc3ccccc3C2)cc1` (centres unmarked) [Compound B23.], the pIC50 was 6.00 to 7.00.
On the same count and under the same terms, as for `CS(=O)(=O)Nc1cccc(C(=O)NCC(O)CN2CCc3ccccc3C2)c1` (centres unmarked) [Compound B24.], the figure is above 7.00.
On the same count and under the same terms, the result for `NC(=O)c1cccc(C(=O)NCC(O)CN2CCc3ccccc3C2)c1` (centres unmarked) [Compound B25.] reads 6.00 to 7.00; that for `CC(=O)Nc1cccc(C(=O)NCC(O)CN2CCc3ccccc3C2)c1` (centres unmarked) [Compound B26.], 6.00 to 7.00.
Take `CS(=O)(=O)Nc1ccccc1C(=O)NCC(O)CN1CCc2ccccc2C1` (centres unmarked) [Compound B27.]: the pIC50 was 5.00 to 6.00.
`CN(C)CCOc1cccc(C(=O)NCC(O)CN2CCc3ccccc3C2)c1` (centres unmarked) [Compound B28.]: the pIC50 is above 7.00.
For the compound `O=C(NCC(O)CN1CCc2ccccc2C1)c1cccc(CN2CCNCC2)c1` (centres unmarked) [Compound B29.], the pIC50 was above 7.00.
On to `CN1CCN(Cc2cccc(C(=O)NCC(O)CN3CCc4ccccc4C3)c2)CC1` (centres unmarked) [Compound B30.], for which the pIC50 is above 7.00.
The same measure, in the same setting: as for `CS(=O)(=O)Nc1ccc(C(=O)NCC(O)CN2CCc3ccccc3C2)cc1` (centres unmarked) [Compound B31.], the figure is 6.00 to 7.00.
Regarding `NS(=O)(=O)c1cccc(C(=O)NCC(O)CN2CCc3ccccc3C2)c1` (centres unmarked) [Compound B32.], the pIC50 was 6.00 to 7.00.
Consider `NS(=O)(=O)c1ccccc1C(=O)NCC(O)CN1CCc2ccccc2C1` (centres unmarked) [Compound B33.], for which the negative-log IC50 (pIC50) was 5.00 to 6.00.
In the case of `CN1CCCC1c1cccc(C(=O)NCC(O)CN2CCc3ccccc3C2)c1` (centres unmarked) [Compound B34.], the pIC50 was above 7.00.
Still for that read-out and setting: as for `O=C(NCC(O)CN1CCc2ccccc2C1)c1cccc(N2CCNCC2)c1` (centres unmarked) [Compound B35.], the figure is above 7.00; as for `CN1CCN(c2cccc(C(=O)NCC(O)CN3CCc4ccccc4C3)c2)CC1` (centres unmarked) [Compound B36.], above 7.00.
As for `O=C(NCC(O)CN1CCc2ccccc2C1)c1cccc(C2CCNC2)c1` (centres unmarked) [Compound B37.], the pIC50 was above 7.00.
Still for that read-out and setting: the result for `CN1CCC(c2cccc(C(=O)NCC(O)CN3CCc4ccccc4C3)c2)C1` (centres unmarked) [Compound B38.] reads above 7.00; that for `CNCCOc1cccc(C(=O)NCC(O)CN2CCc3ccccc3C2)c1` (centres unmarked) [Compound B39.], 6.00 to 7.00.
As to `Cc1c(NC2CCOCC2)cccc1C(=O)NCC(O)CN1CCc2ccccc2C1` (centres unmarked) [Compound B40.], the pIC50 is above 7.00.
Same read-out and setting: as for `CCN(c1cccc(C(=O)NCC(O)CN2CCc3ccccc3C2)c1C)C1CCOCC1` (centres unmarked) [Compound B41.], the figure is above 7.00; as for `O=C(NCC(O)CN1CCc2ccccc2C1)c1cccc(C2CCCN2)c1` (centres unmarked) [Compound B42.], 6.00 to 7.00.
The same measure, in the same setting: the result for `O=C(NC[C@@H](O)CN1CCc2ccccc2C1)c1cccc(NC2CCOCC2)c1` [Compound B43.] reads 6.00 to 7.00; that for `O=C(NC[C@H](O)CN1CCc2ccccc2C1)c1cccc(NC2CCOCC2)c1` [Compound B44.], above 7.00.
Take `O=C(NCC(O)CN1CCc2ccccc2C1)c1cccc(NC2CCOC2)c1` (centres unmarked) [Compound B45.]: the pIC50 was above 7.00.
`O=C(NCC(O)CN1CCc2ccccc2C1)c1cccc(C(=O)N2CCOCC2)c1` (centres unmarked) [Compound B46.]: the pIC50 is 5.00 to 6.00.
The same measure, in the same setting: as for `CCN(c1cccc(C(=O)NCC(O)CN2CCc3ccccc3C2)c1)C1CCOCC1` (centres unmarked) [Compound B47.], the figure is 6.00 to 7.00; as for `O=C(NCC(O)CN1CCc2ccccc2C1)c1cccc(OC2CCOCC2)c1` (centres unmarked) [Compound B48.], 6.00 to 7.00; as for `CN(c1cccc(C(=O)NCC(O)CN2CCc3ccccc3C2)c1)C1CCOCC1` (centres unmarked) [Compound B49.], 6.00 to 7.00.
Turning to `O=C(NCC(O)CN1CCc2ccccc2C1)c1cccc(NC2COC2)c1` (centres unmarked) [Compound B50.], the pIC50 is 6.00 to 7.00.
On to `O=C(NCC(O)CN1CCc2ccccc2C1)c1cccc(CN2CCOCC2)c1` (centres unmarked) [Compound B51.], for which the pIC50 was 6.00 to 7.00.
For `CC(Nc1cccc(C(=O)NCC(O)CN2CCc3ccccc3C2)c1)C1CCOCC1` (centres unmarked) [Compound B52.], the pIC50 is 6.00 to 7.00.
